Columns and labels:
RCC4 = test: XTT IC50 / viability assay, RCC4 cells; format: cell-based, human; conditions: Homo sapiens, RCC4, 96 h; XTT assay, four days
In short: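 RCC4 parental and VHL-reintroduced RCC4/VHL cells (DMEM, 10% FCS) treated with serially diluted drug for four days. Viability by XTT (0.3 mg/mL) with N-methyl dibenzopyrazine methyl sulfate, 1–2 h at 37 °C, absorbance 450 nm; IC50 by linear interpolation.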

Molecule Cc1ncccc1NC(=O)c1ccc(CNS(=O)(=O)c2ccc(C(C)(C)C)cc2)cc1 [Example 108, 4-({[(4-tert-Butylphenyl)sulfonyl]amino}methyl)-N-(2-methyl-3-pyridinyl)benzamide] has an IC50 (RCC4) greater than 20 µM and a melting point of 188 to 190 °C.
Molecule CC(C)(C)c1ccc(S(=O)(=O)NCc2ccc(C(=O)Nc3cncc(F)c3)cc2)cc1 [Example 121, 4-({[(4-tert-Butylphenyl)sulfonyl]amino}methyl)-N-(5-fluoro-3-pyridinyl)benzamide] has an IC50 (RCC4) greater than 20 µM and a melting point of 214 to 217 °C.
Work on CC(C)(C)c1ccc(S(=O)(=O)NCc2ccc(C(=O)Nc3ccc(Cl)nc3)cc2)cc1 [Example 111, 4-({[(4-tert-Butylphenyl)sulfonyl]amino}methyl)-N-(6-chloro-3-pyridinyl)benzamide] yielded an IC50 (RCC4) greater than 20 µM and a melting point of 251 to 253 °C.
O=C(Nc1cccnc1)c1ccc(CNS(=O)(=O)c2ccc(-c3cccc(C(F)(F)F)c3)cc2)cc1 [Example 134, N-(3-Pyridinyl)-4-[({[3′-(trifluoromethyl)[1,1′-biphenyl]-4-yl]sulfonyl}amino)methyl]benzamide] gave an IC50 (RCC4) greater than 20 µM and a melting point of 227 to 229 °C.
O=C(Nc1cnc2ccccc2c1)c1ccc(CNS(=O)(=O)c2ccccc2)cc1 [Example 6, 4-(Phenylsulfonamidomethyl)-N-(quinolin-3-yl)benzamide] showed an IC50 (RCC4) greater than 20 µM and a melting point of 186 to 188 °C.
In the case of Cc1cncc(NC(=O)c2ccc(CNS(=O)(=O)c3ccc(C(C)(C)C)cc3)cc2)c1 [Example 107, 4-({[(4-tert-Butylphenyl)sulfonyl]amino}methyl)-N-(5-methyl-3-pyridinyl)benzamide], the IC50 (RCC4) is reported as greater than 20 µM and the melting point is reported as 189 to 191 °C.
COc1ccc(C(=O)NCc2ccc(C(=O)Nc3cccnc3)cc2)cc1OC [Example 88, 3,4-Dimethoxy-N-(4-(pyridin-3-ylcarbamoyl)benzyl)benzamide] gave an IC50 (RCC4) greater than 20 µM and a melting point of 219 to 220 °C.
CC(C)(C)c1ccc(S(=O)(=O)NCc2ccc(C(=O)Nc3cncc(Cl)c3)cc2)cc1 [Example 115, 4-({[(4-tert-Butylphenyl)sulfonyl]amino}methyl)-N-(5-chloro-3-pyridinyl)benzamide] showed an IC50 (RCC4) greater than 20 µM and a melting point of 217 to 219 °C.
For Cc1cc(C)cc(C(=O)NCc2ccc(C(=O)Nc3cccnc3)cc2)c1 [Example 87, 3,5-Dimethyl-N-(4-(pyridin-3-ylcarbamoyl)benzyl)benzamide], the IC50 (RCC4) was greater than 20 µM and the melting point was 241 to 243 °C.
Molecule O=C(Nc1cccc2ncccc12)c1ccc(CNS(=O)(=O)c2ccccc2)cc1 [Example 7, 4-(Phenylsulfonamidomethyl)-N-(quinolin-5-yl)benzamide] has an IC50 (RCC4) greater than 20 µM and a melting point of 198 to 201 °C.
Work on COc1ccc(NC(=O)c2ccc(CNS(=O)(=O)c3ccc(C(C)(C)C)cc3)cc2)cn1 [Example 110, 4-({[(4-tert-Butylphenyl)sulfonyl]amino}methyl)-N-(6-methoxy-3-pyridinyl)benzamide] yielded an IC50 (RCC4) greater than 20 µM and a melting point of 238 to 240 °C.
With COC(=O)c1ccccc1S(=O)(=O)NCc1ccc(C(=O)Nc2cccnc2)cc1 [Example 14, Methyl 2-(N-(4-(Pyridin-3-ylcarbamoyl)benzyl)sulfamoyl)benzoate] the IC50 (RCC4) was greater than 20 µM and the melting point was 155 to 157 °C.
CC(C)(C)c1ccc(S(=O)(=O)NCc2ccc(C(=O)Nc3ccc(F)nc3)cc2)cc1 [Example 120, 4-({[(4-tert-Butylphenyl)sulfonyl]amino}methyl)-N-(6-fluoro-3-pyridinyl)benzamide] showed an IC50 (RCC4) greater than 20 µM and a melting point of 254 to 257 °C.
Work on O=C(Nc1ccncc1)c1ccc(CNS(=O)(=O)c2ccc(I)cc2)cc1 [Example 99] yielded an IC50 (RCC4) greater than 20 µM and a melting point of 270 to 273 °C.
In the case of COc1ccncc1NC(=O)c1ccc(CNS(=O)(=O)c2ccc(C(C)(C)C)cc2)cc1 [Example 124, 4-({[(4-tert-Butylphenyl)sulfonyl]amino}methyl)-N-(4-methoxy-3-pyridinyl)benzamide], the IC50 (RCC4) is reported as greater than 20 µM and the melting point is reported as 231 to 233 °C.
Molecule O=C(Nc1ncccn1)c1ccc(CNS(=O)(=O)c2ccccc2)cc1 [Example 9, 4-(Phenylsulfonamidomethyl)-N-(pyrimidin-2-yl)benzamide] has an IC50 (RCC4) greater than 20 µM and a melting point of 180 to 182 °C.
With COC(=O)CCc1ccc(S(=O)(=O)NCc2ccc(C(=O)Nc3cccnc3)cc2)cc1 [Example 41, Methyl 3-{4-[({4-[(3-Pyridinylamino)carbonyl]benzyl}amino)sulfonyl]phenyl}propanoate] the IC50 (RCC4) was greater than 20 µM and the melting point was 181 to 182 °C.
CCCN(Cc1ccc(C(=O)Nc2cccnc2)cc1)S(=O)(=O)c1ccc(C(C)(C)C)cc1 [Example 140, 4-{[[(4-tert-Butylphenyl)sulfonyl](propyl)amino]methyl}-N-(3-pyridinyl)benzamide] gave an IC50 (RCC4) greater than 20 µM and a melting point of 177 to 179 °C.
For CC(C)(C)c1ccc(S(=O)(=O)NCc2ccc(C(=O)Nc3ccc(Br)nc3)cc2)cc1 [Example 125, N-(6-Bromo-3-pyridinyl)-4-({[(4-tert-butylphenyl)sulfonyl]amino}methyl)benzamide], the IC50 (RCC4) was greater than 20 µM and the melting point was 242 to 244 °C.
Molecule CC(C)(C)c1ccc(S(=O)(=O)NCc2ccc(C(=O)Nc3cccnc3[N+](=O)[O-])cc2)cc1 [Example 116, 4-({[(4-tert-Butylphenyl)sulfonyl]amino}methyl)-N-(2-nitro-3-pyridinyl)benzamide] has an IC50 (RCC4) greater than 20 µM and a melting point of 191 to 193 °C.
For COCCCc1ccc(S(=O)(=O)NCc2ccc(C(=O)Nc3cccnc3)cc2)cc1 [Example 101, 4-[({[4-(3-Methoxypropyl)phenyl]sulfonyl}amino)methyl]-N-(3-pyridinyl)benzamide], the IC50 (RCC4) was 1 to 20 µM and the melting point was 172 to 174 °C.
CC(C)(C)c1ccc(S(=O)(=O)NCc2ccc(C(=O)Nc3ccc(C(F)(F)F)nc3)cc2)cc1 [Example 118, 4-({[(4-tert-Butylphenyl)sulfonyl]amino}methyl)-N-[6-(trifluoromethyl)-3-pyridinyl]benzamide] gave an IC50 (RCC4) greater than 20 µM and a melting point of 249 to 252 °C.
O=C(Nc1cccnc1)c1ccc(CNS(=O)(=O)c2ccccc2C(F)(F)F)cc1 [Example 15, N-(pyridin-3-yl)-4-((2-(trifluoromethyl)phenylsulfonamido)methyl)benzamide] showed an IC50 (RCC4) greater than 20 µM and a melting point of 234 to 237 °C.
O=C(Nc1nccs1)c1ccc(CNS(=O)(=O)c2ccccc2)cc1 [Example 4, 4-(Phenylsulfonamidomethyl)-N-(thiazol-2-yl)benzamide] showed an IC50 (RCC4) greater than 20 µM and a melting point of 189 to 191 °C.
Work on Cc1ccncc1NC(=O)c1ccc(CNS(=O)(=O)c2ccc(C(C)(C)C)cc2)cc1 [Example 114, 4-({[(4-tert-Butylphenyl)sulfonyl]amino}methyl)-N-(4-methyl-3-pyridinyl)benzamide] yielded an IC50 (RCC4) greater than 20 µM and a melting point of 183 to 185 °C.
Work on COC(=O)c1ccc(S(=O)(=O)NCc2ccc(C(=O)Nc3cccnc3)cc2)cc1 [Example 47, Methyl 4-(N-(4-(Pyridin-3-ylcarbamoyl)benzyl)sulfamoyl)benzoate] yielded an IC50 (RCC4) greater than 20 µM and a melting point of 212 to 215 °C.
Molecule Cc1ccc(NC(=O)c2ccc(CNS(=O)(=O)c3ccc(C(C)(C)C)cc3)cc2)cn1 [Example 109, 4-({[(4-tert-Butylphenyl)sulfonyl]amino}methyl)-N-(6-methyl-3-pyridinyl)benzamide] has an IC50 (RCC4) greater than 20 µM and a melting point of 235 to 237 °C.
For Cc1c(Cl)cccc1S(=O)(=O)NCc1ccc(C(=O)Nc2cccnc2)cc1 [Example 68, 4-((3-Chloro-2-methylphenylsulfonamido)methyl)-N-(pyridin-3-yl)benzamide], the IC50 (RCC4) was greater than 20 µM and the melting point was 218 to 221 °C.
In the case of O=C(Nc1cnccn1)c1ccc(CNS(=O)(=O)c2ccccc2)cc1 [Example 8, 4-(Phenylsulfonamidomethyl)-N-(pyrazin-2-yl)benzamide], the IC50 (RCC4) is reported as greater than 20 µM and the melting point is reported as 200 to 202 °C.
Molecule O=C(Nc1cccnc1)c1ccc(CNS(=O)(=O)c2ccc(C#CCO)cc2)cc1 [Example 103, 4-[({[4-(3-Hydroxy-1-propynyl)phenyl]sulfonyl}amino)methyl]-N-(3-pyridinyl)benzamide] has an IC50 (RCC4) greater than 20 µM and a melting point of 207 to 210 °C.
Molecule O=C(Nc1cccnc1)c1ccc(CNS(=O)(=O)c2ccc(C34CC5CC(CC(Cl)(C5)C3)C4)cc2)cc1 (hydrate or solvate) [Example 40, 4-[({[4-(3-chloro-1-adamantyl)phenyl]sulfonyl}amino)methyl]-N-(3-pyridinyl)benzamide] has a melting point of 229 to 232 °C.
Molecule Cc1cc(CNS(=O)(=O)c2ccc(C(C)(C)C)cc2)ccc1C(=O)Nc1cccnc1 [Example 145, 4-({[(4-tert-Butylphenyl)sulfonyl]amino}methyl)-2-methyl-N-(3-pyridinyl)benzamide] has a melting point of 162 to 163 °C.
In the case of CC(=O)Nc1ccc(NC(=O)c2ccc(CNS(=O)(=O)c3ccc(C(C)(C)C)cc3)cc2)cn1 [Example 119, N-[6-(Acetylamino)-3-pyridinyl]-4-({[(4-tert-butylphenyl)sulfonyl]amino}methyl)benzamide], the IC50 (RCC4) is reported as greater than 20 µM and the melting point is reported as 240 to 243 °C.
Molecule O=C(Nc1cccnc1)c1ccc(CNS(=O)(=O)c2ccc([N+](=O)[O-])cc2)cc1 [Example 51, 4-((4-Nitrophenylsulfonamido)methyl)-N-(pyridin-3-yl)benzamide] has an IC50 (RCC4) greater than 20 µM and a melting point of 241 to 243 °C.
Work on O=C(Nc1ccc[n+]([O-])c1)c1ccc(CNS(=O)(=O)c2ccccc2)cc1 [Example 93, N-(1-Oxido-3-pyridinyl)-4-((phenylsulfonamido)methyl)-benzamide] yielded an IC50 (RCC4) greater than 20 µM and a melting point of 230 to 231 °C.
Molecule O=C(Nc1cc[nH]n1)c1ccc(CNS(=O)(=O)c2ccccc2)cc1 [Example 5, 4-(Phenylsulfonamidomethyl)-N-(1H-pyrazol-3-yl)benzamide] has an IC50 (RCC4) greater than 20 µM and a melting point of 180 to 182 °C.

From patent publication US20120225862A1, “HETEROARYL BENZAMIDES, COMPOSITIONS AND METHODS OF USE” (AUCKLAND UNIVSERVICES LIMITED, priority 2009, published 2012)
